Source: patent publication US11414424B2, “Cardiac sarcomere inhibitors” (Cytokinetics, Inc., priority 2018, dated 2022)

System: bovine cardiac myofibrils
Test: Myofibril assay: PK/LDH-coupled steady-state ATPase activity of skinned bovine cardiac myofibrils
Type: biochemical
Details: Ca2+ activating to 75% of maximal rate
Summary of the method: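 Steady-state ATPase of detergent-skinned bovine left-ventricular myofibrils (1 mg/mL), PK/LDH-coupled NADH read at 340 nm, in PIPES/MgCl2 buffer pH 6.8 with 50 μM ATP, 0.6 mM EGTA and CaCl2 set for 50% or 75% activation. Inhibition of activity measured.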

Row | CDMF75 IC15 | SMILES
1 | 9.0 µM | Cc1cc(N2CCC3(C2)C(=O)N(C(C)C)CC(=O)N3Cc2ccc(C(F)(F)F)cc2)ccn1 (stereo not shown) [Compound 72, 9-isopropyl-2-(2-methylpyridin-4-yl)-6-(4-(trifluoromethyl)benzyl)-2,6,9-triazaspiro[4.5]-decane-7,10-dione]
2 | 5.7 µM | CC(C)N1CC(=O)N(Cc2ccc(C(F)(F)F)cc2)C2(CCN(c3cccnn3)C2)C1=O (stereo not shown) [Compound 73, 9-isopropyl-2-(pyridazin-3-yl)-6-(4-(trifluoromethyl)benzyl)-2,6,9-triazaspiro[4.5]-decane-7,10-dione]
3 | 4.2 µM | CC(C)N1CC(=O)N(Cc2ccc(Cl)cc2)C2(CCN(c3cnccn3)C2)C1=O (stereo not shown) [Compound 74, 6-(4-chlorobenzyl)-9-isopropyl-2-(pyrazin-2-yl)-2,6,9-triazaspiro[4.5]-decane-7,10-dione]
4 | 1.1 µM | Cc1ccc(N2CCC3(C2)C(=O)N(C(C)C)CC(=O)N3Cc2ccc(Cl)cc2)nc1 (stereo not shown) [Compound 75, 6-(4-chlorobenzyl)-9-isopropyl-2-(5-methylpyridin-2-yl)-2,6,9-triazaspiro[4.5]-decane-7,10-dione]
5 | 2.2 µM | CC(C)N1CC(=O)N(Cc2ccc(C(F)(F)F)cc2)C2(CCN(c3cc[nH]c(=O)c3)C2)C1=O (stereo not shown) [Compound 76, 9-isopropyl-2-(2-oxo-1,2-dihydropyridin-4-yl)-6-(4-(trifluoromethyl)benzyl)-2,6,9-triazaspiro[4.5]decane-7,10-dione]
6 | 13.0 µM | Cc1cc(N2CCC3(C2)C(=O)N(C(C)C)CC(=O)N3Cc2ccc(C(F)(F)F)cc2)cc(C)n1 (stereo not shown) [Compound 77, 2-(2,6-dimethylpyridin-4-yl)-9-isopropyl-6-(4-(trifluoromethyl)benzyl)-2,6,9-triazaspiro[4.5]-decane-7,10-dione]
7 | 4.1 µM | CC(C)N1CC(=O)N(Cc2ccc(Cl)cc2)C2(CCN(c3cnn(C)c3)C2)C1=O (stereo not shown) [Compound 78, 6-(4-chlorobenzyl)-9-isopropyl-2-(1-methyl-1H-pyrazol-4-yl)-2,6,9-triazaspiro[4.5]decane-7,10-dione]
8 | 3.8 µM | CC(C)N1CC(=O)N(Cc2ccc(Cl)cc2)C2(CCN(c3cccnn3)C2)C1=O (stereo not shown) [Compound 79, 6-(4-chlorobenzyl)-9-isopropyl-2-(pyridazin-3-yl)-2,6,9-triazaspiro[4.5]-decane-7,10-dione]
9 | 1.7 µM | CC(C)N1CC(=O)N(Cc2ccc(Cl)cc2)C2(CCN(c3ccn(C)c(=O)c3)C2)C1=O (stereo not shown) [Compound 80, 6-(4-chlorobenzyl)-9-isopropyl-2-(1-methyl-2-oxo-1,2-dihydropyridin-4-yl)-2,6,9-triazaspiro-[4.5]decane-7,10-dione]
10 | 1.4 µM | CC(C)N1CC(=O)N(Cc2ccc(Cl)cc2)C2(CCN(c3cc[nH]c(=O)c3)C2)C1=O (stereo not shown) [Compound 81, 6-(4-chlorobenzyl)-9-isopropyl-2-(2-oxo-1,2-dihydropyridin-4-yl)-2,6,9-triazaspiro[4.5]decane-7,10-dione]
11 | 8.1 µM | CCN1CC(=O)N(Cc2ccc(Cl)cc2)C2(CCN(c3ccccn3)C2)C1=O (stereo not shown) [Compound 82, 6-(4-chlorobenzyl)-9-ethyl-2-(pyridin-2-yl)-2,6,9-triazaspiro[4.5]decane-7,10-dione]
12 | 1.3 µM | O=C1CN(C2CCCC2)C(=O)C2(CCN(c3ccccn3)C2)N1Cc1ccc(Cl)cc1 (stereo not shown) [Compound 83, 6-(4-chlorobenzyl)-9-cyclopentyl-2-(pyridin-2-yl)-2,6,9-triazaspiro[4.5]-decane-7,10-dione]
13 | 4.0 µM | CC(C)CN1CC(=O)N(Cc2ccc(Cl)cc2)C2(CCN(c3ccccn3)C2)C1=O (stereo not shown) [Compound 84, 6-(4-chlorobenzyl)-9-isobutyl-2-(pyridin-2-yl)-2,6,9-triazaspiro[4.5]-decane-7,10-dione]
14 | 14.3 µM | CC1(N2CC(=O)N(Cc3ccc(Cl)cc3)C3(CCN(c4ccccn4)C3)C2=O)CC1 (stereo not shown) [Compound 85, 6-(4-chlorobenzyl)-9-(1-methylcyclopropyl)-2-(pyridin-2-yl)-2,6,9-triazaspiro[4.5]decane-7,10-dione]
15 | 8.6 µM | COCC(C)N1CC(=O)N(Cc2ccc(Cl)cc2)C2(CCN(c3ccccn3)C2)C1=O (stereo not shown) [Compound 86, 6-(4-chlorobenzyl)-9-(1-methoxypropan-2-yl)-2-(pyridin-2-yl)-2,6,9-triazaspiro[4.5]decane-7,10-dione]
16 | 1.9 µM | COc1cc(N2CCC3(C2)C(=O)N(C(C)C)CC(=O)N3Cc2ccc(Cl)cc2)ccn1 (stereo not shown) [Compound 87, 6-(4-chlorobenzyl)-9-isopropyl-2-(2-methoxypyridin-4-yl)-2,6,9-triazaspiro[4.5]-decane-7,10-dione]
17 | 4.0 µM | CC(C)N1CC(=O)N(Cc2ccc(C(F)(F)F)cc2)C2(CCN(c3cc(C#N)ccn3)C2)C1=O (stereo not shown) [Compound 88, 2-(9-isopropyl-7,10-dioxo-6-(4-(trifluoromethyl)-benzyl)-2,6,9-triazaspiro[4.5]decan-2-yl)isonicotinonitrile]

Row | CDMF75 IC15 | SMILES
18 | 3.3 µM | CC(C)N1CC(=O)N(Cc2ccc(C(F)(F)F)cc2)C2(CCN(c3cc(C(N)=O)ccn3)C2)C1=O (stereo not shown) [Compound 89, 2-(9-isopropyl-7,10-dioxo-6-(4-(trifluoromethyl)-benzyl)-2,6,9-triazaspiro[4.5]decan-2-yl)isonicotinamide]
19 | 1.7 µM | CC(C)N1CC(=O)N(Cc2ccc(Cl)c(Cl)c2)C2(CCN(c3ccc(C#N)cn3)C2)C1=O (stereo not shown) [Compound 90, 6-(6-(3,4-dichlorobenzyl)-9-isopropyl-7,10-dioxo-2,6,9-triazaspiro[4.5]-decan-2-yl)nicotinonitrile]
20 | 1.1 µM | CC(C)N1CC(=O)N(Cc2ccc(Cl)c(Cl)c2)C2(CCN(c3ccc(C(N)=O)cn3)C2)C1=O (stereo not shown) [Compound 91, 6-(6-(3,4-dichlorobenzyl)-9-isopropyl-7,10-dioxo-2,6,9-triazaspiro[4.5]decan-2-yl)nicotinamide]
21 | 1.0 µM | CC(C)N1CC(=O)N(Cc2ccc(Cl)cc2)C2(CCN(c3ccc(F)cn3)C2)C1=O (stereo not shown) [Compound 92, 6-(4-chlorobenzyl)-2-(5-fluoropyridin-2-yl)-9-isopropyl-2,6,9-triazaspiro[4.5]decane-7,10-dione]
22 | 19.7 µM | O=C1CN([C@@H]2CCOC2)C(=O)C2(CCN(c3ccccn3)C2)N1Cc1ccc(Cl)cc1 (stereo partly drawn) [Compound 93, 6-(4-chlorobenzyl)-2-(pyridin-2-yl)-9-((R)-tetrahydrofuran-3-yl)-2,6,9-triazaspiro-[4.5]decane-7,10-dione]
23 | 36.1 µM | O=C1CN([C@H]2CCOC2)C(=O)C2(CCN(c3ccccn3)C2)N1Cc1ccc(Cl)cc1 (stereo partly drawn) [Compound 94, 6-(4-chlorobenzyl)-2-(pyridin-2-yl)-9-((S)-tetra-hydrofuran-3-yl)-2,6,9-triazaspiro[4.5]decane-7,10-dione]
24 | 5.0 µM | CC(C)N1CC(=O)N(Cc2ccc(Cl)cc2)C2(CCN(c3cc(C#N)ccn3)C2)C1=O (stereo not shown) [Compound 95, 2-(6-(4-chlorobenzyl)-9-isopropyl-7,10-dioxo-2,6,9-triazaspiro[4.5]decan-2-yl)isonicotinonitrile]
25 | 4.5 µM | CC(C)N1CC(=O)N(Cc2ccc(Cl)cc2)C2(CCN(c3ccc(C#N)cn3)C2)C1=O (stereo not shown) [Compound 96, 6-(6-(4-chlorobenzyl)-9-isopropyl-7,10-dioxo-2,6,9-triazaspiro[4.5]decan-2-yl)nicotinonitrile]
26 | 3.1 µM | CC(C)N1CC(=O)N(Cc2ccc(Cl)cc2)C2(CCN(c3cc(C(N)=O)ccn3)C2)C1=O (stereo not shown) [Compound 97, 2-(6-(4-chlorobenzyl)-9-isopropyl-7,10-dioxo-2,6,9-triazaspiro[4.5]decan-2-yl)isonicotinamide]
27 | 2.4 µM | CC(C)N1CC(=O)N(Cc2ccc(Cl)cc2)C2(CCN(c3ccc(C(N)=O)cn3)C2)C1=O (stereo not shown) [Compound 98, 6-(6-(4-chlorobenzyl)-9-isopropyl-7,10-dioxo-2,6,9-triazaspiro[4.5]decan-2-yl)nicotinamide]
28 | 12.7 µM | CC(C)N1CC(=O)N(Cc2ccc(C(F)(F)F)cc2)C2(CCN(C(N)=O)C2)C1=O (stereo not shown) [Compound 107, 9-isopropyl-7,10-dioxo-6-(4-(trifluoromethyl)benzyl)-2,6,9-triazaspiro[4.5]decane-2-carboxamide]
29 | 8.3 µM | CC(C)N1CC(=O)N(Cc2ccc(C(F)(F)F)cc2)C2(CCN(C(=O)Nc3ccccc3)C2)C1=O (stereo not shown) [Compound 109, 9-isopropyl-7,10-dioxo-N-phenyl-6-(4-(trifluoro-methyl)benzyl)-2,6,9-triazaspiro[4.5]decane-2-carboxamide]
30 | 34.4 µM | COC(=O)N1CCC2(C1)C(=O)N(C(C)C)CC(=O)N2Cc1ccc(C(F)(F)F)cc1 (stereo not shown) [Compound 110, methyl 9-isopropyl-7,10-dioxo-6-(4-(trifluoro-methyl)benzyl)-2,6,9-triazaspiro[4.5]decane-2-carboxylate]
31 | 19.8 µM | CC(C)N1CC(=O)N(Cc2ccc(C(F)(F)F)cc2)C2(CCN(C(=O)Nc3ccncc3)C2)C1=O (stereo not shown) [Compound 111, 9-isopropyl-7,10-dioxo-N-(pyridin-4-yl)-6-(4-(trifluoromethyl)benzyl)-2,6,9-triazaspiro[4.5]-decane-2-carboxamide]
32 | 33.0 µM | CC(C)N1CC(=O)N(Cc2ccc(C(F)(F)F)cc2)C2(CCN(C(=O)NC(C)(C)C)C2)C1=O (stereo not shown) [Compound 112, N-(tert-butyl)-9-isopropyl-7,10-dioxo-6-(4-(trifluoromethyl)benzyl)-2,6,9-triazaspiro[4.5]-decane-2-carboxamide]
33 | 18.5 µM | CC(C)N1CC(=O)N(Cc2ccc(C(F)(F)F)cc2)C2(CCN(C(=O)Nc3cccnc3)C2)C1=O (stereo not shown) [Compound 113, 9-isopropyl-7,10-dioxo-N-(pyridin-3-yl)-6-(4-(trifluoromethyl)benzyl)-2,6,9-triazaspiro[4.5]-decane-2-carboxamide]
34 | 7.9 µM | CC(C)N1CC(=O)N(Cc2ccc(C(F)(F)F)cc2)C2(CCN(C(=O)Nc3cnn(C)c3)C2)C1=O (stereo not shown) [Compound 114, 9-isopropyl-N-(1-methyl-1H-pyrazol-4-yl)-7,10-dioxo-6-(4-(trifluoromethyl)benzyl)-2,6,9-triazaspiro[4.5]decane-2-carboxamide]
